Source: patent US8993606B2, “Oral formulations for treating metal overload” (FerroKin BioSciences, Inc., priority 2011, dated 2015)
Like-named read-outs stand apart in the source and are kept apart here.

Columns and labels:
[1] = Example 6: multiple-dose study in iron-overloaded human subjects (PK); type: in vivo; details: for half-life / Tmax / CL renal / Cmax / AUC(0-t) / Vd/F: both sexes, human, plasma; for AUC(0-t): read-out: AUC(0 - 24); for Vd/F: read-out: Vz/F
Text: Example 6 was a multiple-dose, escalating study in iron-overloaded subjects conducted at 5 centers in the US, Australia, and Thailand.
Men and women at least 18 years of age qualified to participate if they were able to voluntarily give consent and had transfusional overload requiring treatment with an iron chelator and were willing to discontinue their chelation for a period of at least 5 days prior to screening and during the study for a total of up to 35 days. […] The mean of each subject's last 3 pre-transfusion hemoglobin levels (prior to screening) was ≧7.5 g/dL and their serum ferritin was >400 ng/mL. Subjects also agreed to use an approved method of contraception during the study.
The study enrolled 20 subjects with the following primary diagnoses requiring chronic transfusions:
• 2 β-thalassemia major • 2 sickle cell anemia Cohort 2 (8 mg/kg): • 1α-thalassemia major (α°/α°) • 2 β-thalassemia major • 1 congenital dyserythropoietic anemia Cohort 3 (16 mg/kg): • 4 β-thalassemia major Cohort 4 (32 mg/kg): • 1 α-thalassemia major)(α°/α° • 2 β-thalassemia/hemoglobin E • 1 sickle cell anemia Cohort 5 (40 mg/kg): • 2 β-thalassemia major • 2 β-thalassemia/hemoglobin E

[2] = Example 7: high single doses in healthy human subjects (PK); type: in vivo; details: fasted; for CL renal / AUC(0-inf) / Cmax / Tmax / Vd/F / half-life: both sexes, human; for CL renal: plasma and urine; for AUC(0-inf) / Cmax / Tmax / Vd/F / half-life: plasma; for Vd/F: read-out: Vz/F; for half-life: read-out: t½ (converted)
Protocol: Subjects were male and female healthy human volunteers aged between 18 and 50 years, free from clinically significant illness or disease as determined by their medical/surgical history, physical examination etc., and having a serum ferritin>20 ng/mL. Subjects were given, in the fasted state, either 30, 40, 50, or 60 mg/kg Compound 1 as a blended formulation of 96% (wt/wt) drug substance (powder) with 3% (wt/wt) croscarmellose sodium and 1% (wt/wt) magnesium stearate dispensed in hard gelatin capsules in strengths of 50 mg, 100 mg, 250 mg, and 375 mg.
The 30 and 50 mg/kg dose groups each contained seven subjects; data from only four of these subjects was used to calculate AUCinf, t½, CL/F, and VZ/F. The 40 and 60 mg/kg dose groups each contained three subjects; data from only three of these subjects was used to calculate AUCinf, t½, CL/F, and VZ/F.
Blood samples of approximately 7 mL were drawn via cannula at 0.25, 0.5, 0.75, 1, 1.25, 1.5, 2, 2.5, 4, 8, 12 and 24 hours post-dose, for pharmacokinetic analysis. (See FIG. 2.) Urine was collected over the time periods 0-4, 4-8, 8-12 and 12-24 hours post-dose for pharmacokinetic and pharmacodynamic assessment.
PK plasma and PK urine samples were assayed by a validated LC/MS/MS method, specific for the determination of Compound 1. Pharmacokinetic parameters for Compound 1 will be calculated using non-compartmental analysis. Only plasma and urine concentrations greater than the lower limits of quantitation (LOQ, 5 ng/mL in plasma and urine) for the assays will be used in the pharmacokinetic analysis.

[3] = 3 mg/kg/day, 7 days oral, N = 4
[4] = 8 mg/kg/day, 7 days oral, N = 4
[5] = 16 mg/kg/day, 7 days oral, N = 4
[6] = 32 mg/kg/day, 7 days oral, N = 2
[7] = 32 mg/kg/day, 7 days oral, N = 4
[8] = 40 mg/kg/day, 7 days oral, N = 4

COCCOCCOCCOc1cccc(C2=N[C@@](C)(C(=O)O)CS2)c1O [Compound 1, (S)-4,5-Dihydro-2-[2-hydroxy-3-(3,6,9-trioxadecyloxy)phenyl]-4-methyl-4-thiazolecarboxylate magnesium hydroxide]
CL/F [1, 3]: 162 ± 85.0 mL/min | Fe(0-24) [1, 3]: 44.0 ± 16.0 % oral dose | Ue(0-24) [1, 3]: 66.1 ± 24.0 mg | λz [1, 3]: 0.0655 ± 0.0606 h⁻¹ | CL/F [1, 4]: 225 ± 142 mL/min | Fe(0-24) [1, 4]: 47.2 ± 13.8 % oral dose | Ue(0-24) [1, 4]: 201 ± 68.1 mg | λz [1, 4]: 0.0424 ± 0.0249 h⁻¹ | CL/F [1, 5]: 206 ± 78.4 mL/min | Fe(0-24) [1, 5]: 39.2 ± 5.86 % oral dose | Ue(0-24) [1, 5]: 402 ± 103 mg | λz [1, 5]: 0.0421 ± 0.0246 h⁻¹ | λz [1, 6]: 0.0381 ± 0.0091^a hr^−1 | CL/F [1, 7]: 172 ± 60.1 mL/min | Fe(0-24) [1, 7]: 43.1 ± 15.8 % oral dose | Ue(0-24) [1, 7]: 641 ± 208 mg | CL/F [1, 8]: 223 ± 23.6 mL/min | Fe(0-24) [1, 8]: 48.4 ± 14.0 % oral dose | Ue(0-24) [1, 8]: 905 ± 247 mg | λz [1, 8]: 0.0544 ± 0.0071 h⁻¹ | time of maximum plasma concentrations, mean ([1]; after 7 days of daily dosing): 1.24 h | time of maximum plasma concentrations, range ([1]; after 7 days of daily dosing, 3-40 mg/kg/day): 1.0 to 1.49 h | half-life ([1]; oral, across 5 cohorts, read-out: mean t1/2, range): 12.9 to 21.3 h | Tmax ([1]; oral, across 5 cohorts, read-out: median values for tmax, range): 1 to 1.49 h | CL renal [1, 3]: 75.2 ± 46.8 mL/min | Cmax [1, 3]: 5.91 ± 2.3 µg/mL | AUC(0-t) [1, 3]: 19.5 ± 11.3 µg·h/mL | half-life ([1]; 3 mg/kg/day, 7 days oral, N = 4, read-out: T1/2 (converted)): 16.2 ± 8.32 h | Vd/F [1, 3]: 185 ± 84.1 L | Tmax ([1]; 3 mg/kg/day, 7 days oral, median, read-out: tmax): 1.31 h | CL renal [1, 4]: 105 ± 62.9 mL/min | Cmax [1, 4]: 15 ± 4.44 µg/mL | AUC(0-t) [1, 4]: 44.9 ± 30.8 µg·h/mL | half-life ([1]; 8 mg/kg/day, 7 days oral, N = 4, read-out: T1/2 (converted)): 20.9 ± 11.3 h | Vd/F [1, 4]: 311 ± 137 L | Tmax ([1]; 8 mg/kg/day, 7 days oral, median, read-out: tmax): 1.18 h | CL renal [1, 5]: 83.2 ± 3600 mL/min | Cmax [1, 5]: 38.2 ± 3.95 µg/mL | AUC(0-t) [1, 5]: 92.3 ± 36.6 µg·h/mL | half-life ([1]; 16 mg/kg/day, 7 days oral, N = 4, read-out: T1/2 (converted)): 21.3 ± 11.8 h | Vd/F [1, 5]: 339 ± 166 L | Tmax ([1]; 16 mg/kg/day, 7 days oral, median, read-out: tmax): 1 h | half-life ([1]; 32 mg/kg/day, 7 days oral, N = 2, read-out: T1/2 (converted)): 18.7 h | Vd/F [1, 6]: 214 L | CL renal [1, 7]: 73.6 ± 37.8 mL/min | Cmax [1, 7]: 68.2 ± 27.5 µg/mL | AUC(0-t) [1, 7]: 158 ± 43.5 µg·h/mL | Tmax ([1]; 32 mg/kg/day, 7 days oral, median, read-out: tmax): 1.49 h | CL renal [1, 8]: 107 ± 26.2 mL/min | Cmax [1, 8]: 68.6 ± 11 µg/mL | AUC(0-t) [1, 8]: 141 ± 8.07 µg·h/mL | half-life ([1]; 40 mg/kg/day, 7 days oral, N = 4, read-out: T1/2 (converted)): 12.9 ± 1.68 h | Vd/F [1, 8]: 249 ± 40.4 L | Tmax ([1]; 40 mg/kg/day, 7 days oral, median, read-out: tmax): 1.26 h | CL renal ([2]; single oral dose 30 mg/kg): 139 ± 13.2 mL/min | CL renal ([2]; single oral dose 40 mg/kg): 152 ± 18 mL/min | CL renal ([2]; single oral dose 50 mg/kg): 103 ± 16.2 mL/min | CL renal ([2]; single oral dose 60 mg/kg): 146 ± 34.4 mL/min | AUC(0-inf) ([2]; single oral dose 30 mg/kg): 161 ± 24.1 µg·h/mL | Cmax ([2]; single oral dose 30 mg/kg): 68.2 ± 17.5 µg/mL | Tmax ([2]; single oral dose 30 mg/kg): 1 h | Vd/F ([2]; single oral dose 30 mg/kg): 248 ± 58.8 L | half-life ([2]; single oral dose 30 mg/kg): 12.1 ± 3.05 h | AUC(0-inf) ([2]; single oral dose 40 mg/kg): 195 ± 67.3 µg·h/mL | Cmax ([2]; single oral dose 40 mg/kg): 87.9 ± 15 µg/mL | Tmax ([2]; single oral dose 40 mg/kg): 1.38 h | Vd/F ([2]; single oral dose 40 mg/kg): 542 ± 657 L | half-life ([2]; single oral dose 40 mg/kg): 18.6 ± 19.2 h | AUC(0-inf) ([2]; single oral dose 50 mg/kg): 236 ± 58.3 µg·h/mL | Cmax ([2]; single oral dose 50 mg/kg): 91.7 ± 18.8 µg/mL | Tmax ([2]; single oral dose 50 mg/kg): 1.5 h | Vd/F ([2]; single oral dose 50 mg/kg): 338 ± 272 L | half-life ([2]; single oral dose 50 mg/kg): 12.8 ± 7.66 h | AUC(0-inf) ([2]; single oral dose 60 mg/kg): 227 ± 44.7 µg·h/mL | Cmax ([2]; single oral dose 60 mg/kg): 104 ± 36.7 µg/mL | Tmax ([2]; single oral dose 60 mg/kg): 1.25 h | Vd/F ([2]; single oral dose 60 mg/kg): 285 ± 159 L | half-life ([2]; single oral dose 60 mg/kg): 8.44 ± 3.83 h | CL/F ([2]; single oral dose 30 mg/kg): 239 ± 17.2 mL/min | CL/F ([2]; single oral dose 40 mg/kg): 290 ± 73.8 mL/min | CL/F ([2]; single oral dose 50 mg/kg): 286 ± 56.1 mL/min | CL/F ([2]; single oral dose 60 mg/kg): 381 ± 55.8 mL/min
